What all share (type): cell-based
The target of one assay is hROMK1 (Kir1.1) (Homo sapiens (Human), UniProt P48048). Kind of assay: 86Rb+ Efflux Assay. As to conditions: CHO-DHFR- cells stably expressing hROMK1; 35 min incubation. On the procedure:
(§1) Several assays may be used to measure functional inhibition of the ROMK channel by compounds of the instant invention. One primary assay that can be used is a functional ^86Rb^+ efflux assay that measures the ability of ROMK to permeate ^86Rb^+, in the absence or presence of test compound. Under control conditions, cells loaded with ^86Rb^+ and incubated in Rb^+-free medium display a time-dependent efflux of the isotope, the rate of which depends on number of functional channels. […] This assay has been established with cell lines expressing either human, rat or dog ROMK channels, and can operate in 96- or 384-well format. Importantly, the human, rat, and dog ^86Rb^+ efflux assays can be carried out in the presence of up to 100% serum allowing, therefore, an accurate estimation of the effect of protein binding on the inhibitory activity of compounds of interest. Another ROMK functional assay makes use of the ability of thallium to permeate through open ROMK channels and increase the fluorescence of a dye previously loaded into the cells. Under control conditions, cells loaded with dye and exposed to thallium-containing medium display a time-dependent increase in fluorescence, the rate of which depends on number of functional channels. When cells are incubated in the presence of a channel inhibitor, the increase in fluorescence is attenuated in a concentration-dependent manner, and IC50 values of inhibition by compounds can be accurately determined. This assay has been established with cell lines expressing either human, or rat ROMK channels, and operates in 384-well format. Another assay for evaluation of the compounds of the instant invention and for evaluation of mechanism of action of compounds of Formula I relies on the measurement of the electrical current that is generated as potassium permeates through the channel. For these electrophysiological experiments, three different platforms, IonWorks, QPatch, or manual patch clamp, are used, depending on the experimental protocol under consideration. IonWorks operates in a 384-well format and allows accurate determination of IC50 values for inhibitors.

A further assay deals with hROMK (hKir1.1) (Homo sapiens (Human), UniProt P48048). Kind of assay: Thallium Flux Assay. The note with it: HEK293 cells stably expressing hROMK; FLIPR-Tetra, 30 min incubation. On the procedure: as §1
To dislodge the cell, gently bang the side of the flask with your hand. […] Centrifuge at 1,500 rpm for 6 min followed by resuspension in complete growth media and determine cell concentration. […] Under ideal growth conditions and appropriate tissue culture practices, this cell line is stable for 40-45 passages.
FluxOR Kit Components (Invitrogen F10017)
• FluxOR™ Reagent (Component A) • FluxOR™ Assay Buffer (Component B)—10× Concentrate • PowerLoad™ Concentrate (Component C)—100× Concentrate • Probenecid (Component D)—Lyophilized sample is kept at −20° C. Water soluble, 100× after solubilization in 1 ml water. […] Store at 4° C. • Thallium sulfate (Tl2SO4) Concentrate (Component G)—50 mM in water. […] Can be stored at room temperature • Stimulant Buffer (prepared at 5× final concentration in 1× FluxOR™ Chloride-Free Buffer): 7.5 mM Thallium sulfate and 0.75 mM Potassium sulfate (to give a final assay concentration of 3 mM Thallium/0.3 mM Potassium). Store at 4° C. when not in use. If kept sterile, this solution is good for months.

For another assay, the target named is Kir1.1 (ROMK1) (Homo sapiens (Human), UniProt P48048). Kind of assay: ROMK Electrophysiology Assay (IonWorks Quattro whole cell voltage clamp). The note with it: Chinese hamster ovary cells stably expressing Kir1.1; block at voltage step to 0 mV, 6 min compound incubation. As to the method:
as §1
Chinese hamster ovary cells stably expressing Kir1.1 channels were maintained in T-75 flasks in cell culture media in a humidified 10% CO2 incubator at 37° C. Prior to an experiment, Kir1.1 expression was induced by overnight incubation with 1 mM sodium butyrate. […] After centrifugation, the cell pellet was resuspended in approximately 4.0 ml of bath solution and placed in the IonWorks instrument. The intracellular solution consisted of (in mM): 80 K gluconate, 40 KCl, 20 KF, 3.2 MgCl2, 3 EGTA, 5 Hepes, pH 7.4. […] Current amplitudes were measured using the IonWorks software.
(Patch clamp records ionic current or voltage across a cell membrane.)

Chain of hROMK (hKir1.1) (P48048 whole entry): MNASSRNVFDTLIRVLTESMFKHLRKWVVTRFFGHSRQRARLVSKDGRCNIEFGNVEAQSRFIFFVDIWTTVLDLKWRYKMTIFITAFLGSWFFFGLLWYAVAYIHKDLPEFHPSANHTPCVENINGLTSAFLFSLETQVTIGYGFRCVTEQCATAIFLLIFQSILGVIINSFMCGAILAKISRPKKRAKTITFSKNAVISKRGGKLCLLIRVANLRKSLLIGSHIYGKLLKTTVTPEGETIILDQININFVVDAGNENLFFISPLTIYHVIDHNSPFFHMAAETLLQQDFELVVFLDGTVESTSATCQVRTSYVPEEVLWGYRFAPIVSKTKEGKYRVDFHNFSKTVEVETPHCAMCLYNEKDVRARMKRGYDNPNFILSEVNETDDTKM
Chain of hROMK1 (Kir1.1) (P48048 whole entry): as above
Chain of Kir1.1 (ROMK1) (P48048 whole entry, species assumed): as the sequence (P48048 whole entry) above

As a reminder, the IC50 is the midpoint of a concentration-inhibition curve. A high value points to lower potency. On to `Cc1c(CCN2CCN(CC(O)c3ccc4c(c3C)COC4=O)CC2)ccc2c1COC2=O` (centres unmarked) [Example 12, 5-(1-hydroxy-2-{4-[2-(4-methyl-1-oxo-1,3-dihydro-2-benzofuran-5-yl)ethyl]piperazine-1-yl}ethyl)-4-methyl-2-benzofuran-1(3H)-one], for which the IC50 came to 46 nM on hROMK1 (Kir1.1), 6 nM at hROMK (hKir1.1) and 13 nM against Kir1.1 (ROMK1).
Consider `COc1cc(C(O)CN2CCN(CCc3ccc4c(c3C)COC4=O)CC2)c(F)cc1C#N` (centres unmarked) [Example 24, 5-fluoro-4-(1-hydroxy-2-{4-[2-(4-methyl-1-oxo-1,3-dihydro-2-benzofuran-5-yl)ethyl]piperazin-1-yl}ethyl)-2-(methyloxy)benzonitrile], for which the IC50 against hROMK1 (Kir1.1) came to 130 nM; on hROMK (hKir1.1) it was 26 nM.
As to `O=C1OCc2c1ccc(C(O)CN1CCN(CC(O)c3ccc4c(c3Cl)COC4=O)CC1)c2Cl` (centres unmarked) [Example 5], the IC50 was 88 nM against hROMK1 (Kir1.1), 13 nM at hROMK (hKir1.1) and 7 nM on Kir1.1 (ROMK1).
In the same order, the values of `Cc1c(C(O)CN2CCN(CC3CCc4c3ccc3c4COC3=O)CC2)ccc2c1COC2=O` (centres unmarked) [Example 20, 6-({4-[2-hydroxy-2-(4-methyl-1-oxo-1,3-dihydro-2-benzofuran-5-yl)ethyl]piperazin-1-yl}methyl)-1,6,7,8-tetrahydro-3H-indeno[4,5-c]furan-3-one] are 36 nM, 7 nM and 14 nM.
In the same order, the values of `Cc1c(C(O)CN2CCN(CC3CCc4c3ccc(F)c4C#N)CC2)ccc2c1COC2=O` (centres unmarked) [Example 55, 5-fluoro-1-({4-[2-hydroxy-2-(4-methyl-1-oxo-1,3-dihydro-2-benzofuran-5-yl)ethyl]piperazin-1-yl}methyl)-2,3-dihydro-1H-indene-4-carbonitrile] are 47 nM, 15 nM and 23 nM.

Values taken from patent US9018211B2, “Inhibitors of the renal outer medullary potassium channel” (Merck Sharp & Dohme Corp., priority 2009, dated 2015).
